2 molecules from patent publication US6310247A, “7-aryl-6(Z)-heptatrienoic acid retinamides” (Hoffmann-LA Roche Inc., priority 1999, dated 2001) can be followed below.

For orientation: inhibition means the relative decrease from the control value, in per cent.

Holding throughout (assay type): cell-based
Assay [1] deals with MDA 231 cells. The assay can be described thus: Cell growth inhibition: MTT assay, MDA 231 (ER- breast carcinoma). The conditions noted are these: Homo sapiens, MDA-MB-231, read-out: % inhibition of cell growth compared to no drug control. As for the experimental part:
ER- breast carcinoma, human (MDA-231) obtained from ATCC (HTB 22), were grown in Eagle's MEM medium supplemented with non-essential amino acids, sodium pyruvate, and Earle's BSS, 10% FBS, and 13 ng/mL gentamicin. Cells were incubated at 37° C., 4.5% CO2 and 95.5% humidified air.
(§1) 1. Cell growth inhibition: MTT Assay
(§2) The compounds of formula 1 were tested for ability to inhibit cell growth using the standard MTT assay, a tetrazolium-based assay which measures the viability of cells in culture. Cells were harvested upon reaching 70-80% confluency and pelleted. The cells were then resuspended in medium in which FBS was replaced with Hyclone's Charcoal/Dextran stripped FBS, and seeded (2 mL/well) into 6-well plates (Corning) at a density allowing for linear growth over a four day assay period. Compounds of formula 1 (10 mM stock in dimethylsulfoxide (DMSO)) were added 18-24 hours post-seeding. Compound dilutions were prepared in the appropriate growth media and added to the cells for final concentrations of 10, 3.3 and 1 μM in 0.1% DMSO. At 24, 48 and 72 hr. time points, MTT (3-[4,5-dimethylthiazol-2-yl-2,5-diphenyltetrazolium bromide) stock solution (5mg/mL in 1 PBS) was added to the cells plates (625 μL/well) which were then incubated for 2.5 hours. Liquid was aspirated from the wells and 1 mL/well of 95% ethanol was added to solubilize the formazan reaction product. The plates were shaken (Bellco Mini-Orbital Shaker) for 15 minutes. The solubilized formazan was then transferred (50 μls) into a 96-well plate and the optical densities (OD) were measured (Bio-Tek Microplate Reader) at 570 nm and reference wavelength of 660 nm. Percentage of inhibition of cell growth was calculated according to the following formula: [formula]
On the technique in general: Tetrazolium dyes change colour on reduction, which living cells bring about.

The test system of assay [2] is MDA 435 cells. The assay can be described thus: Cell growth inhibition: MTT assay, MDA 435 (ER- breast carcinoma). Particulars: Homo sapiens, MDA435, read-out: % inhibition of cell growth compared to no drug control. Here is the method: ER- breast carcinoma, human (MDA-435) obtained from Dr. Janet Price, MDA Cancer Center, Houston, Tex., were grown in Gibco's RPMI 1640 media supplemented with sodium pyruvate, 10% FBS and 13 ng/mL gentamicin. Cells were incubated at 37° C., 4.5% CO2 and 95.5% humidified air.
as §1, §2

In assay [3] the test system is ZR-75-1 cells. Description: Cell growth inhibition: MTT assay, ZR-75-1 (ER+ breast carcinoma). Particulars: Homo sapiens, read-out: % inhibition of cell growth compared to no drug control. Here is the method:
ER+ breast carcinoma, human (ZR-75-1) obtained from ATCC (CRL 1500), were grown in Gibco's RPMI 1640 media supplemented with sodium pyruvate, 10% FBS and 13 ng/mL gentamicin. Cells were incubated at 37° C., 4.5% CO2 and 95.5% humidified air.
as §1, §2

Structures are written as SMILES. Like-named read-outs stand apart in the source and are kept apart here.

`CC(/C=C/C(C)=C/C(=O)Nc1ccc(O)cc1)=C(\C)c1cc(C(F)(F)F)cc(C(F)(F)F)c1` [N-(4-hydroxyphenyl)-(2E,4E,6Z)-7-[3,5-bis(trifluoromethyl)phenyl]-3,6,7-trimethyl-2,4,6-heptatrienamide]: the inhibition at 1 µM in assay [1] (24 hours) was determined as 0%; in assay [1] (48 hours), 0%; in assay [1] (72 hours), 38%; in assay [2] (24 hours) it was 3%; in assay [2] (48 hours), 3%; in assay [2] (72 hours) it was 4%. In addition, the results for the inhibition at 1 µM in assay [3] (48 hours) and in assay [3] (72 hours) were 3% and 16%, respectively. The inhibition at 3.3 µM came to 0% in assay [1] (24 hours); 0% in assay [1] (48 hours); 48% in assay [1] (72 hours); 67% in assay [2] (24 hours); 95% in assay [2] (48 hours); 98% in assay [2] (72 hours). The figures for the inhibition at 3.3 µM in assay [3] (48 hours) and in assay [3] (72 hours) were 0% and 10%, respectively. The inhibition at 10 µM came out at 40% in assay [1] (24 hours); 57% in assay [1] (48 hours); 76% in assay [1] (72 hours); 68% in assay [2] (24 hours); 96% in assay [2] (48 hours); 99% in assay [2] (72 hours). The inhibition at 10 µM was found to be 60% in assay [3] (48 hours) and 80% in assay [3] (72 hours).

Regarding `CC(/C=C/C=C\c1cc(C(F)(F)F)cc(C(F)(F)F)c1)=C\C(=O)Nc1ccc(O)cc1` [N-(4-hydroxyphenyl)-(2E,4E,6Z)-7-[3,5-bis(trifluoromethyl)phenyl]-3-methyl-2,4,6-heptatrienamide], the inhibition at 1 µM in assay [1] (24 hours) is 22%; in assay [1] (48 hours), 42%; in assay [1] (72 hours) it was 50%; in assay [2] (24 hours) it was 19%; in assay [2] (48 hours) it was 45%; in assay [2] (72 hours), 73%. Besides, the inhibition at 3.3 µM in assay [1] (24 hours) is 33%; in assay [1] (48 hours), 51%; in assay [1] (72 hours), 68%; in assay [2] (24 hours) it was 81%; in assay [2] (48 hours), 93%; in assay [2] (72 hours) it was 83%. Further, the inhibition at 10 µM in assay [1] (24 hours) is 37%; in assay [1] (48 hours), 50%; in assay [1] (72 hours), 73%; in assay [2] (24 hours), 91%; in assay [2] (48 hours) it was 99%; in assay [2] (72 hours) it was 100%.
